From the NIST ThermoML archive (doi:10.1016/j.jct.2017.07.024)

Key:
[1] = wn = mass fraction of the nth substance listed; settings: for surface tension liquid-gas: Maximal bubble pressure; for mass density: 100 kPa, Liquid, Vibrating tube method
[2] = refractive index (Na D-line) (dimensionless); wn = mass fraction of the nth substance listed; settings: 100 kPa, Liquid, Standard Abbe refractometry

CCCCCCn1cc[n+](C)c1.C[C@@H](O)[C@H](N)C(=O)[O-] [1-hexyl-3-methylimidazolium DL-threoninate] + O
Settings	mass density, [1] [kg/m3]	refractive index, [2]	surface tension liquid-gas, [1] [mN/m]
288.15 K, w2 = 0.006	1089.58	1.5042	37.4
288.15 K, w2 = 0.0091	1089.35	1.5038	37.6
288.15 K, w2 = 0.012	1089.16	1.5034	37.8
288.15 K, w2 = 0.0149	1088.99	1.5031	38
288.15 K, w2 = 0.0172	1088.81	1.5028	38.2
293.15 K, w2 = 0.006	1086.27	1.5026	37
293.15 K, w2 = 0.0091	1086.04	1.5023	37.2
293.15 K, w2 = 0.012	1085.85	1.502	37.4
293.15 K, w2 = 0.0149	1085.68	1.5017	37.6
293.15 K, w2 = 0.0172	1085.5	1.5014	37.8
298.15 K, w2 = 0.006	1082.96	1.5012	36.7
298.15 K, w2 = 0.0091	1082.73	1.5009	36.9
298.15 K, w2 = 0.012	1082.54	1.5006	37.1
298.15 K, w2 = 0.0149	1082.37	1.5003	37.3
298.15 K, w2 = 0.0172	1082.19	1.5	37.5
303.15 K, w2 = 0.006	1079.61	1.4994	36.4
303.15 K, w2 = 0.0091	1079.38	1.4991	36.7
303.15 K, w2 = 0.012	1079.19	1.4988	36.9
303.15 K, w2 = 0.0149	1079.01	1.4985	37.1
303.15 K, w2 = 0.0172	1078.82	1.4982	37.3
308.15 K, w2 = 0.006	1076.29	1.4981	36.1
308.15 K, w2 = 0.0091	1076.06	1.4978	36.4
308.15 K, w2 = 0.012	1075.86	1.4974	36.6
308.15 K, w2 = 0.0149	1075.69	1.4971	36.8
308.15 K, w2 = 0.0172	1075.49	1.4968	37
313.15 K, w2 = 0.006	1073	1.4964	35.8
313.15 K, w2 = 0.0091	1072.76	1.4961	36.1
313.15 K, w2 = 0.012	1072.56	1.4958	36.3
313.15 K, w2 = 0.0149	1072.38	1.4955	36.5
313.15 K, w2 = 0.0172	1072.18	1.4952	36.7
318.15 K, w2 = 0.006	1069.54	1.495	35.5
318.15 K, w2 = 0.0091	1069.29	1.4947	35.8
318.15 K, w2 = 0.012	1069.09	1.4944	36
318.15 K, w2 = 0.0149	1068.91	1.4941	36.3
318.15 K, w2 = 0.0172	1068.71	1.4938	36.5
323.15 K, w2 = 0.006	1066.37	1.4933	35.2
323.15 K, w2 = 0.0091	1066.12	1.4929	35.5
323.15 K, w2 = 0.012	1065.91	1.4926	35.7
323.15 K, w2 = 0.0149	1065.72	1.4922	36
323.15 K, w2 = 0.0172	1065.51	1.4919	36.2
328.15 K, w2 = 0.006	1063.07	1.4918	34.9
328.15 K, w2 = 0.0091	1062.82	1.4914	35.2
328.15 K, w2 = 0.012	1062.61	1.4911	35.4
328.15 K, w2 = 0.0149	1062.42	1.4907	35.7
328.15 K, w2 = 0.0172	1062.21	1.4904	35.9
